Test results from PubChem BioAssay (NCI).
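Exposure lasted 48 hours, with cells grown in 96-well plates and compounds tested at five concentrations. GI50: concentration for 50% inhibition of growth. TGI: total growth inhibition.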

Legend:
Assay in all cases: NCI tumour cell line growth inhibition, 48 h
[1] = system: EKVX NSCLC
[2] = system: MCF7 breast
[3] = system: UACC-257 melanoma
[4] = system: OVCAR-8 ovarian
[5] = system: NCI-H226 lung
[6] = system: HOP-62 NSCLC
[7] = system: MOLT-4 leukemia
[8] = system: SF-295 CNS
[9] = system: HCC-2998 colon
[10] = system: MALME-3M melanoma

Structure (SMILES)	GI50 [1] [µM]	TGI [1] [µM]	GI50 [2] [µM]	TGI [2] [µM]	GI50 [3] [µM]	TGI [3] [µM]	GI50 [4] [µM]	TGI [4] [µM]	GI50 [5] [µM]	TGI [5] [µM]	GI50 [6] [µM]	TGI [6] [µM]	GI50 [7] [µM]	TGI [7] [µM]	GI50 [8] [µM]	TGI [8] [µM]	GI50 [9] [µM]	TGI [9] [µM]	TGI [10] [µM]	GI50 [10] [µM]
CCOc1ccc2nc(SCc3nc4n(n3)S(=O)(=O)c3ccccc3N4C)sc2c1	> 100	> 100	> 100	> 100	> 100	> 100	73	> 100	> 100	> 100	50.8	> 100	> 100	> 100	> 100	> 100				
COc1ccc(-c2cn[nH]c2-c2cc(OC)c3c(c2)OCO3)cc1			0.116	15.8			0.423	15.1	1.34	22.3	0.309	24.1	0.541	15.1	0.181	4.15	0.649	11.8		
O=C(O)CCCCCCC[C@H]1S[C@H]1CCCCCCO		> 100						> 100				> 100		> 100		> 100		> 100	> 100	
COc1ccc(S(=O)(=O)Nc2ccccc2C(=O)O)cc1		> 100				> 100		> 100		> 100				> 100		> 100		> 100	> 100	
CC(C(=O)c1ccccc1)C(c1ccccc1)N1CCOCC1 (stereo not given)		> 100		> 100		> 100		> 100		> 100		> 100		> 100		> 100			> 100	
O=C1c2ccccc2-c2c1c1c(=O)[nH]c3ccccc3c1n2Cc1ccccc1	30.4	99.5	35.8	> 100	> 100	> 100	51	> 100	24.5	67.4	25.6	49.1	> 100	> 100	17.2	40.9			> 100	37.1
C=C(COC(C)=O)CC(OC(C)=O)c1ccccc1 (stereo not given)		> 100						> 100		> 100		> 100		> 100		> 100		> 100		
CC1CCC2(CC1)NN=c1s/c(=C\c3ccc(O)cc3)c(=O)n1N2 (stereo not given)		> 100						> 100		> 100		> 100		> 100		> 100		> 100		
CC(C)(C)C(=O)c1c(C(F)(F)F)n([O-])c2ccccc2[n+]1=O	0.757	2.3	0.421	2.03	1.46	5.57	0.254	1.35	0.84	2.48	1.47	2.94	0.157	0.853	0.294	1.27			2.34	0.973
COc1ccc(OC)c2c1CC(C(=O)O)(C(=O)O)CC2=O		> 100								> 100		> 100		> 100				> 100	> 100	
